In the supplement of paper PMC8967900:

Tests used:
Assay in all cases: selective drug sensitivity score (sDSS, relative to normal bone marrow) (sDSS (score)); higher = more potent and effective on the cell line relative to normal bone marrow cells
Settings in all cases: 72 h
JURKAT = system: JURKAT
HPB-ALL = system: HPB-ALL
697 = system: 697
MN-60 = system: MN-60
MHH-CALL-3 = system: MHH-CALL-3
CCRF-HSB2 = system: CCRF-HSB2
NALL-1 = system: NALL-1
LC4-1 = system: LC4-1
COG-LL-355h = system: COG-LL-355h
380 = system: 380
SEM cells = system: SEM cells
COG-LL-394h = system: COG-LL-394h
RCH-ACV = system: RCH-ACV
KASUMI-10 = system: KASUMI-10
RPMI-8402 = system: RPMI-8402
MOLT-16 = system: MOLT-16
KOPN-8 = system: KOPN-8
P30-OHKUBO = system: P30-OHKUBO
KARPAS-45 = system: KARPAS-45
MHH-CALL-2 = system: MHH-CALL-2
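Note: ALL cell lines in 384-well plates, five doses spanning 10,000-fold, each plate scaled between vehicle and 100 µmol/L benzalkonium chloride controls, sDSS an adapted area-under-curve metric.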

Row | Compound | selective drug sensitivity score (JURKAT) | selective drug sensitivity score (HPB-ALL) | selective drug sensitivity score 697 | selective drug sensitivity score (MN-60) | selective drug sensitivity score (MHH-CALL-3) | selective drug sensitivity score (CCRF-HSB2) | selective drug sensitivity score (NALL-1) | selective drug sensitivity score (LC4-1) | selective drug sensitivity score (COG-LL-355h) | selective drug sensitivity score 380 | selective drug sensitivity score (SEM cells) | selective drug sensitivity score (COG-LL-394h) | selective drug sensitivity score (RCH-ACV) | selective drug sensitivity score (KASUMI-10) | selective drug sensitivity score (RPMI-8402) | selective drug sensitivity score (MOLT-16) | selective drug sensitivity score (KOPN-8) | selective drug sensitivity score (P30-OHKUBO) | selective drug sensitivity score (KARPAS-45) | selective drug sensitivity score (MHH-CALL-2)
1 | COc1cc2c(Oc3ccc(NC(=O)C4(C(=O)Nc5ccc(F)cc5)CC4)cc3F)ccnc2cc1OCCCN1CCOCC1 [Foretinib] (top concentration 1000 nM) | -4.36 | 3.34 | 2.24 | -4.46 | -3.56 | 6.24 | 1.74 | 2.04 | 0.34 | -0.56 | 20.9 | 1.84 | 0.44 | 17.8 | 0.34 | 0.24 | 7.84 | 0.54 | 2.44 | 7.04
2 | COc1cc(Nc2ncc(F)c(Nc3ccc4c(n3)N(COP(=O)(O)O)C(=O)C(C)(C)O4)n2)cc(OC)c1OC [Fostamatinib] (top concentration 2500 nM) | -2.14 | -1.94 | 3.16 | -1.34 | -1.44 | 4.46 | -2.64 | 2.56 | 1.96 | -2.84 | 9.96 | -1.54 | 7.96 | 8.66 | -0.24 | -2.84 | 4.66 | 2.96 | 4.56 | 0.56
3 | CC1(C)OCCn2c1nc1c(N3CCOCC3)nc(-c3cnc(N)nc3)nc12 [GDC-0084] (top concentration 10000 nM) | 2.9 | 3.2 | 8.2 | 5.2 | 7 | 6.1 | 8.7 | 4.2 | 9 | 15 | 14.4 | -0.3 | 20.8 | 3.9 | 5.1 | 6.8 | 13.2 | 10.9 | 5.1 | 11.2
4 | CC(C)c1cc(-c2n[nH]c(=O)n2-c2ccc3c(ccn3C)c2)c(O)cc1O [Ganetespib] (top concentration 1000 nM) | -2.46 | 0.64 | 1.24 | -5.06 | 6.64 | 4.34 | -1.86 | 1.44 | 1.34 | 2.74 | 1.24 | -3.26 | 3.44 | 4.64 | -1.66 | 4.74 | 10.1 | 2.24 | -0.26 | -1.36
5 | CCc1nc(C(N)=O)c(Nc2ccc(N3CCC(N4CCN(C)CC4)CC3)c(OC)c2)nc1NC1CCOCC1 [Gilteritinib] (top concentration 1000 nM) | -2.52 | -1.62 | 1.88 | -2.52 | -2.52 | 0.08 | -2.52 | 0.38 | 2.38 | -2.52 | 4.38 | 1.78 | 2.58 | 10.4 | -1.32 | -2.52 | 3.08 | 7.38 | -2.12 | -1.32
6 | CCN(CC)Cc1ccc2cc(COC(=O)Nc3ccc(C(=O)NO)cc3)ccc2c1 [Givinostat] (top concentration 1000 nM) | 0.9 | 6.3 | 4.8 | -1.2 | 15.6 | 4.5 | -0.4 | 5.5 | 5 | 6.9 | 4.4 | 2.4 | 9.8 | 4.7 | 3.9 | 5.1 | 13.5 | 3.7 | 11.1 | 8.6
7 | COCCNCc1ccc(-c2cc3nccc(Oc4ccc(NC(=S)NC(=O)Cc5ccc(F)cc5)cc4F)c3s2)nc1 [Glesatinib] (top concentration 2500 nM) | -1.96 | -0.26 | 0.04 | -1.96 | -0.36 | 11.7 | 2.94 | 1.94 | 0.54 | -1.96 | 14.1 | 0.84 | 3.74 | 8.74 | 0.54 | -1.96 | 6.14 | -0.76 | 2.34 | 0.94
8 | C=CC(=O)N1CCC[C@@H](n2nc(-c3ccc(Oc4ccccc4)cc3)c3c(N)ncnc32)C1 [Ibrutinib] (top concentration 1000 nM) | 0 | 1.5 | 2.2 | 0 | 0 | 7 | 0 | 1 | 0 | 0.9 | 0 | 0 | 15 | 0 | 1.1 | 2 | 2.7 | 1.2 | 3.4 | 0.1
9 | CC[C@H](Nc1ncnc2[nH]cnc12)c1nc2cccc(F)c2c(=O)n1-c1ccccc1 [Idelalisib] (top concentration 10000 nM) | -1.76 | -2.16 | 1.84 | -2.16 | 9.44 | 1.24 | 3.54 | -0.16 | 3.14 | 5.74 | 3.54 | -2.16 | 23.8 | -0.26 | -0.76 | 1.24 | 5.64 | 7.94 | 1.54 | 11.3
10 | O=C(Nc1ccncc1)C(=O)c1cn(Cc2ccc(Cl)cc2)c2ccccc12 [Indibulin] (top concentration 10000 nM) | 15.1 | 14.2 | 12 | 1.84 | 1.64 | 11.2 | 9.94 | 17.3 | -1.46 | 8.74 | 11.9 | 1.54 | 14.6 | 11.3 | 5.84 | 16 | 17.9 | 6.14 | 6.84 | 5.74
11 | CC(C)C[C@H](NC(=O)CNC(=O)c1cc(Cl)ccc1Cl)B(O)O [Ixazomib] (top concentration 1000 nM) | 4.86 | 8.46 | 5.56 | -1.84 | 8.96 | 8.86 | 6.56 | 6.46 | 6.56 | 5.56 | 13.1 | 5.26 | 7.36 | 3.16 | 6.56 | 7.06 | 6.26 | 6.66 | 5.96 | 5.26
12 | CC(C)NC(=O)COc1cccc(-c2nc(Nc3ccc4[nH]ncc4c3)c3ccccc3n2)c1 [KD025] (top concentration 5000 nM) | -3.06 | -3.26 | -0.66 | -5.36 | -5.36 | -3.86 | 2.54 | 6.44 | -0.86 | -5.36 | -2.96 | -1.36 | -2.16 | -5.36 | -2.36 | 0.64 | 0.74 | 1.84 | -2.76 | 3.94
13 | Nc1cccc2c1CN(C1CCC(=O)NC1=O)C2=O (stereo not given) [Lenalidomide] (top concentration 100000 nM) | -2.28 | -2.28 | -2.28 | -2.28 | -2.28 | 0.22 | -2.28 | -0.58 | 2.82 | 1.62 | 3.82 | -2.28 | 4.42 | 3.22 | -2.08 | -0.88 | 1.02 | -2.28 | -2.28 | 1.92
14 | Sc1ncnc2nc[nH]c12 [Mercaptopurine] (top concentration 10000 nM) | 10.3 | 14.9 | 8 | 6.6 | 0 | 12.6 | 10.7 | 17.1 | 0.5 | 7.4 | 12.6 | 0.5 | 14.2 | 6.9 | 9.2 | 16.9 | 14.9 | 8.9 | 17.1 | 13.4
15 | Cc1ccc(C(=O)Nc2ccc(Oc3cc4cnn(C)c4cc3-c3cn[nH]c3)c(F)c2)c(=O)n1-c1ccc(F)cc1 [Merestinib] (top concentration 1000 nM) | -0.62 | -0.62 | 0.48 | 1.38 | -0.62 | -0.22 | 8.28 | -0.62 | -0.62 | -0.62 | 19.8 | -0.62 | 1.08 | 14.8 | -0.62 | -0.62 | -0.62 | 0.88 | -0.62 | 9.68
16 | CNC(=O)c1nn(C)c2c1C(C)(C)Cc1cnc(Nc3ccc(N4CCN(C)CC4)cc3)nc1-2 [Milciclib] (top concentration 10000 nM) | 4.34 | 4.44 | 12.5 | 2.04 | -5.26 | 13.9 | -0.86 | 5.94 | 5.44 | -0.06 | 10 | 1.74 | 14.3 | 12.6 | 5.54 | 6.44 | 5.84 | 4.94 | 5.04 | 9.54
17 | N#CCNC(=O)c1ccc(-c2ccnc(Nc3ccc(N4CCOCC4)cc3)n2)cc1 [Momelotinib] (top concentration 10000 nM) | -5.12 | -8.52 | 2.68 | -7.22 | -9.42 | 1.08 | -6.72 | -4.62 | -0.92 | -9.62 | 1.48 | -3.92 | 5.78 | 0.98 | -0.82 | 0.28 | -1.62 | 1.58 | 0.18 | -2.22
18 | Cc1ccc(C(=O)Nc2cccc(C(F)(F)F)c2)cc1Nc1nc(-c2cccnc2)nc2c1cnn2C [NVP-BHG712] (top concentration 10000 nM) | 2.98 | 0.18 | 3.78 | 0.68 | 1.48 | 10.3 | 2.98 | 3.38 | 4.48 | 1.28 | 2.48 | -2.32 | 7.78 | 3.38 | 5.08 | 3.68 | 7.78 | 5.98 | 3.48 | 5.28
